The record followed here is patent publication US9949979B2, “Use of inhibitors of the activity or function of PI3K” (NOVARTIS AG, priority 2011, dated 2018).

SMILES strings stand for the structures.

The target in assay [1] is PI3K delta (Homo sapiens, UniProt O00329). The experiment in a line: PI3K delta inhibition in Rat1-myr-HA-p110 delta cells (Akt Ser473 phosphorylation, AlphaScreen SureFire). The class given is cell-based. The note with it: read-out: Cell PI3Kδ/ IC50. Also noted: myristylation signal (myr) (N); HA tag (N); expressed in transfected cells; host or cells: Rat1 cells, stably transfected. The method, then:
Untreated cells were used as low controls, cells stimulated in absence of compounds were used as high controls. […] Cell lysates were either used immediately of stored frozen (in sealed plates) at −20° C. until use. […] Addition of AlphaScreen® SureFire® reagents was done according to the manufacturer's protocol. First, 5 ul of reaction buffer plus activation buffer mix containing AlphaScreen® acceptor beads was added, the plate was sealed, and incubated on a plate shaker for 2 hours at room temperature. […] The difference between high and low controls was taken as 100% and compound effects were expressed as percent inhibition. IC50 values were determined from the dose response curves by graphical extrapolation.
For orientation: In Alpha technology, singlet oxygen from a donor bead excites a nearby acceptor bead.

Assay [2] deals with TLR9. Nature of the assay: TLR9-induced IL-6 in murine splenocytes (CpG1826, ELISA). The class given is cell-based, C57BL/6 mice. The note with it: Mus musculus, Splenocyte; read-out: TLR9-ligand induced IL-6 in murine splenocytes IC50. The method, then: 2.2 Determination of TLR9-Induced IL-6 in Murine Splenocytes
Spleens were dissected from C57BL/6 mice immediately following euthanasia. Excess fat was trimmed from the spleens prior to mashing the spleen through a […] cell strainer using a plunger from a 5 ml syringe. A single cell suspension was prepared and the volume was adjusted to 15 ml in a 50 ml Falcon tube using cold PBS. Cells were centrifuged at 1500 rpm for 5 minutes at 4° C. degrees prior to removal of supernatant and re-suspension in 5 ml of red blood cell lysis buffer per spleen and incubation for 5 minutes at room temperature. Ice cold PBS (30 ml) was added to the cells prior to centrifugation at 1500 rpm for 5 minutes at 4° C. The supernatant was removed and the cells were washed twice with 40 ml of murine splenocyte culture media (MSCM). […] Cells were re-suspended in 10-20 ml of MSCM and counted using a Countess cell counter. […]
After overnight culture, cells were transferred to 96-well V-bottomed plates and centrifuged at 2000 rpm for 5 minutes at room temperature. Subsequently 150 μl of each culture supernatant was transferred to 96-well flat-bottomed plates and […] were measured using commercially available mouse IL-6 sandwich ELISA kit (R&D systems). […] IL-6 levels were measured using a SpectraMax 190 Plate Reader (450 nm) and analyzed using SoftMax Pro and GraphPad Prism software.
(In general: An ELISA detects its analyte on a solid surface through an enzyme-linked reagent.)

Assay [3] concerns TLR9. Nature of the assay: TLR9-induced IFNalpha in human PBMC (CpG2216, AlphaLISA). The note with it: read-out: TLR9-ligand induced IFNα in human PBMC IC50. The class given is cell-based. The method, then: (§1) 2.4 Determination of TLR9-Induced IFNalpha in Human Peripheral Blood Mononuclear Cells (PBMCs) and Isolated Plasmacytoid Dendritic Cells (pDCs)
Human blood (ca. 75 ml) was collected in 10 S-Monovette tubes containing Heparin (S-Monovette 7.5 mL NH Heparin 16 IU/mL blood; Starstedt). Leucosep™ tubes (30 mL #227290; Greiner Bio-one) were prepared by addition of 15 ml lymphocyte separation medium LSM1077™ per tube (#J15-004; PAA Laboratories) and centrifugation for 30 sec at 1000 g. Some 25 ml blood was transferred to Leucosep™ tubes following dilution with equal parts of PBS (without Ca2+/Mg2+; #14190-094). […] The PBMC were counted using a Countess® Automated cell counter (sample was pre-diluted 1:10 in Media, prior to the addition of equal volume (10 μl) of Trypan Blue). […]
(§2) Compounds were pre-diluted in 100% v/v DMSO (#41640-100 mL; Sigma-Aldrich), followed by transfer in Media (to achieve a final DMSO concentration of 0.25%). […] Plates were briefly centrifuged (200×g for 2 min at 22° C.) and supernatant samples (30 μl) removed for quantification of IFNα levels.
For quantification of IFNalpha the human interferon AlphaLISA Kit (#AL264F) from PerkinElmer was used. […] Data were collected for analysis and quantification of IFNα levels.
Data were analysed using Excel XL fit 4.0 (Microsoft) with XLfit add-in (IDBS; version 4.3.2). […]

Assay [4] concerns TLR9. The experiment in a line: TLR9-induced IFNalpha in isolated human pDCs (CpG2216, AlphaLISA). The class given is cell-based. The note with it: read-out: TLR9-ligand induced IFNα in human pDCs IC50. On the procedure:
as §1
Human PBMCs were prepared using Buffy Coats as source material from healthy donations (approx. 50 ml obtained from Blutspendezentrum SRK Basel) and processed as indicated above. […]
as §2
For quantification of IFNalpha the human interferon AlphaLISA Kit (#AL264F) from PerkinElmer was used. […] After incubation, the plates were read with an EnVision™ multiplate reader equipped with the ALPHA option using the instrument's own “AlphaScreen standard settings” (e.g. total measurement time: 550 ms, Laser 680 nm excitation time: 180 ms, mirror: D640 as, emission filter: M570w, center wavelength 570 nm, bandwidth 100 nm, transmittance 75%). Data were collected for analysis and quantification of IFNα levels.
Data were analysed using Excel XL fit 4.0 (Microsoft) with XLfit add-in (IDBS; version 4.3.2). Specific IFNα concentrations were determined following extrapolation to standard curves using human IFNα B (2b). […]

Chain of PI3K delta (O00329 whole entry): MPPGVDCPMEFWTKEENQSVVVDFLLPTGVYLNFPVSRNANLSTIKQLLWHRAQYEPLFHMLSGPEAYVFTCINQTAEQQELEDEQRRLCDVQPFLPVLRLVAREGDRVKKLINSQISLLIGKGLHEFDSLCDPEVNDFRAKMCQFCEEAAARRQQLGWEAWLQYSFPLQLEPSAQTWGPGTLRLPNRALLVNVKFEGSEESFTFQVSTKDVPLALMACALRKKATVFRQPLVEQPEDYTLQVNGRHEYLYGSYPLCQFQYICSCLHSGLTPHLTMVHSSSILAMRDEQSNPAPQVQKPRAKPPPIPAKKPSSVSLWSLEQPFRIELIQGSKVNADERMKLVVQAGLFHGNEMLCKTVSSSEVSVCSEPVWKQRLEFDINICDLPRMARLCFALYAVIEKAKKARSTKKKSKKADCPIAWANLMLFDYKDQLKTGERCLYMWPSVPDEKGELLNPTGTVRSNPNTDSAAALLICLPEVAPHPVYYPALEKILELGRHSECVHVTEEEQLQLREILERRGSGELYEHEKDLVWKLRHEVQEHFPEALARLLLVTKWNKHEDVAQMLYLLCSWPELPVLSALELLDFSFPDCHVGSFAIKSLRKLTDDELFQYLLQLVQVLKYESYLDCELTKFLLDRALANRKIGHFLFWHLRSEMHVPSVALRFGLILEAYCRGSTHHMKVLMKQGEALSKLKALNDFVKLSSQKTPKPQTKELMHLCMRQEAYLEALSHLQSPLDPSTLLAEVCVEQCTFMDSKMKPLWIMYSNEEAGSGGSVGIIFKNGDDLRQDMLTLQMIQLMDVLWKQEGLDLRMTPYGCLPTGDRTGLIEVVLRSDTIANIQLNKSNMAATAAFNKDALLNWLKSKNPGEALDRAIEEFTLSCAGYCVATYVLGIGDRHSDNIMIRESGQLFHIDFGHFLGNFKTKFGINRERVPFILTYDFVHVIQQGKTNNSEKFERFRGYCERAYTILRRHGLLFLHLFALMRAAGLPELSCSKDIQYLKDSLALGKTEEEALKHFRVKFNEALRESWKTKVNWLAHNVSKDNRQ
Chain of PI3K delta (Q63787 whole entry partner): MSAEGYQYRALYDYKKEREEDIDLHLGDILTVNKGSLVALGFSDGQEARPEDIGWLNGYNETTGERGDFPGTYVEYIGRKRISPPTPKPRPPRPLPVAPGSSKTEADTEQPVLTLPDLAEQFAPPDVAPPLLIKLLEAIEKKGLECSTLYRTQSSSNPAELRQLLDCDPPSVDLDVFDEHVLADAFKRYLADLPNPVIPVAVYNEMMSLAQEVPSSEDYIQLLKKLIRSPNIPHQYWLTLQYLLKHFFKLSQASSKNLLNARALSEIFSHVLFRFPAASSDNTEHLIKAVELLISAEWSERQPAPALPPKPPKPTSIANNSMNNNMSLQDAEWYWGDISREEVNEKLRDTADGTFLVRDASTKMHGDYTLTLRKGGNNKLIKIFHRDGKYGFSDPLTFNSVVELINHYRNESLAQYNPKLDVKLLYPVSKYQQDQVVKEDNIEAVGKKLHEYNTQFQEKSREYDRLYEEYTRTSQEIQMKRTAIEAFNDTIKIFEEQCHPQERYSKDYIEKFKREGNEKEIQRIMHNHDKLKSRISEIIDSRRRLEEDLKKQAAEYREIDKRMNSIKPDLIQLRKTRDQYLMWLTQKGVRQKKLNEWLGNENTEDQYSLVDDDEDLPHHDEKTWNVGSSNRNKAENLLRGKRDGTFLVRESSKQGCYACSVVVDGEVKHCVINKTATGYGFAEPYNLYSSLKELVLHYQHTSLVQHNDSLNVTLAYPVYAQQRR

In the case of `COc1ncc(N2CCc3ncnc(O[C@H]4CCN(C(=O)c5cn(C)cn5)C4)c3C2)cc1C` [Example 20, {(S)-3-[6-(6-Methoxy-5-methyl-pyridin-3-yl)-5,6,7,8-tetrahydro-pyrido[4,3-d]pyrimidin-4-yloxy]-pyrrolidin-1-yl}-(1-methyl-1H-imidazol-4-yl)-methanone], the IC50 in assay [1] is 254 nM.
Regarding `COc1ncc(N2CCc3ncnc(O[C@H]4CCN(C(=O)C5CCOCC5)C4)c3C2)cc1C` [Example 1, {(S)-3-[6-(6-Methoxy-5-methyl-pyridin-3-yl)-5,6,7,8-tetrahydro-pyrido[4,3-d]pyrimidin-4-yloxy]-pyrrolidin-1-yl}-(tetrahydro-pyran-4-yl)-methanone], the IC50 came to 327 nM in assay [2], 211 nM in assay [3] and 50 nM in assay [4].
